According to patent publication US20240300905A1, “Quinazoline Compounds and Uses” (Prosetta Biosciences, Inc., priority 2023, published 2024):
Where two headings read alike, the source gives them in different places.

Columns and labels:
Assay type in all cases: cell-based
NL4-3 Rluc virus = assay: HIV screen (NL4-3 Rluc virus in MT-2 cells, luciferase readout); conditions: Human immunodeficiency virus 1, NL43, MT2, 96 h
Method: MT-2 cells were preseeded in 96-well plates in 100 uL of complete RPMI. Multiple concentrations of PAV-951 were serially diluted in DMSO then into an infection media prepared by diluting NL4-3 Rluc virus stock to 400 IU/100 uL with complete RPMI, which was transferred onto the MT-2 cells with a final MOI of 0.02 and final DMSO concentration of 1% in infected places. One well received DMSO only, instead of PAV-951, and one well received medium only for normalization and background collection. Cells were incubated at 37 degrees Celsius for 96 hours. 100 ul of medium was removed and discarded and 10 uL of 15 uM EnduRen luciferase substrate was added to each well, followed by incubation for 1.5 hours at 37 degrees Celsius. Plates were read on a luminescence plate reader. Bioluminescence intensity was read on a Synergy H1 BioTek plate reader. Averages and standard deviation for viral titer observed under different treatment conditions were calculated in Microsoft Excel and graphed as the percent inhibition in PAV-951 treated cells compared to untreated cells.

plasmodium = assay: Malaria screen (SYBR green fluorescence, plasmodium parasitemia culture); conditions: 0.5% plasmodium parasitemia culture, 48 hours
Method: Compound was added to a 0.5% plasmodium parasitemia culture for 48 hours, then treated with SYBR green (a dye with marked fluorescence enhancement upon contact with plasmodium DNA) and the fluorescence was measured in drug treated versus untreated cells to determine inhibitory effects (Smilkstein, et al., “Simple and inexpensive fluorescence-based technique for high-throughput antimalarial drug screening,” Antimicrob Agents Chemother, 2004 May; 48(5):1803-6. doi: 10.1128/AAC.48.5.1803-1806.2004. PMID: 15105138: PMCID: PMC400546).

Hennes-20 cells = assay: Hennes-20 oncology screen (low vs high plating density, alamar Blue)
Method: All compounds mentioned as active were tested in Hennes. Select hits from the Hennes screen were sent for additional anti-cancer testing.
To screen compounds for oncology activity Hennes-20 cells were plated at low (500 cells/well) versus high (15,000 cells/well) densities and treated with DMSO (vehicle) or dose-titration of compounds. The rationale for this screen is that an intrinsically toxic compound should kill cells regardless of density, including in Hennes-20 cells. However, a compound that selectively triggers the arrest of proliferation will inhibit cell growth when plated at a low density will appear cytotoxic due to inhibition of cell growth when plated at a low density but will appear non-toxic to cells plated at a high density where the cells are approaching confluence and the readout detected by a cell viability assay is already close to the maximum.
To conduct the Hennes-20 screen, two 96 well plates were seeded with Hennes 20 cells in parallel where one was plated at a density of 500 cells/well and the other was plated at a density of 15,000 cells/well. 90 uL of minimum essential media was added to each well and plates were placed in a 37 degrees Celsius incubator for 24 hours. The next day, 10 ul of media containing dilutions of compound in DMSO were added to each plate. Six wells on each plate received 10 ul of media containing only DMSO. Each well was gently mixed 5 times with a 100 ul pipette. Plates were incubated at 37 degrees Celsius for 72 hours then 10 uL of alamar Blue was added to each well. Wells were mixed 5 times then incubated at 37 degrees Celsius for […]. Plates were then read at 530/590.
The rationale for the screen is as follows: Hennes-20 cells lack endogenous apoptosis. Cells plated at low density will proliferate and approach confluence in 72 hrs. A drug that arrests proliferation may have its proliferation blocking effect masked by the triggering of endogenous apoptosis. However, in the Hennes line, lacking endogenous apoptosis, such an arrest is manifest as a dose-dependent maintenance at low cell density. Since the high-density cells are plated close to confluence, the difference between Alamar Blue cell survival readings after 72 hrs reflects the ability of the drug to block proliferation in the low density-plated cells. In the high density-plated cells any diminution of Alamar Blue readout vs vehicle control is due to intrinsic toxicity, not proliferation arrest, since cells were already at confluence. Thus, a compound that appears toxic (low Alamar Blue readings after 72 hrs) on the low-density plate, but which appears non-toxic (high Alamar Blue readings after 72 hrs) on the high-density plate, must be arresting proliferation, since intrinsic compound toxicity should be observed at both low and high cell densities, not selectively on the low-density plate.

[1] = 72 h, Hennes-20 cells, 72 hours compound incubation, alamar Blue, read-out: EC50

Compound | EC50 (plasmodium) [µM] | EC50 (Hennes-20 cells; [1]) [nM] | other results
Clc1ccc2c(N3CCN(c4ncnc5cc(Cl)ccc45)CC3)ncnc2c1 [Compound 46] | > 10 |  | EC50 (NL4-3 Rluc virus): 510 nM
c1cncc(CCNc2ncnc3cc(N4CCN(c5ccc6c(NCCc7cccnc7)ncnc6c5)CC4)ccc23)c1 [Compound 41] | 0.06 | < 12500 | 
CC(C)CCNc1ncnc2cc(N3CCN(c4ccc5c(NCCC(C)C)ncnc5c4)CC3)ccc12 [Compound 6] | 0.024 | < 500 | EC50 (NL4-3 Rluc virus): 340 nM
CC(C)CCn1ccc2cc(N3CCN(c4ccc5c(ccn5CCC(C)C)c4)CC3)ccc21 [Compound 39] | 3 |  | 
c1ccc(CCNc2ncnc3cc(N4CCN(c5ccc6c(NCCc7ccccc7)ncnc6c5)CC4)ccc23)cc1 [Compound 1] | 0.036 | < 500 | 
CC(C)CCNc1ncnc2cc(N3CCN(c4ccc5ccn(CCC(C)C)c5c4)CC3)ccc12 [Compound 34] | 0.2 |  | 
CCN(CCN(CC)c1ccc2c(NCCC(C)C)ncnc2c1)c1ccc2c(NCCC(C)C)ncnc2c1 [Compound 88] |  | < 12500 | 
CC(C)CCNc1ncnc2cc(N3CCN(c4ccc5c(NCCC(C)C)ncnc5c4)C(C)C3C)ccc12 (centres unmarked) [Compound 55] |  | 500 | 
CCCCNc1ncnc2cc(N3CCN(c4ccc5c(N6CCC(C)(C)CC6)ncnc5c4)CC3)ccc12 [Compound 70] |  | 500 | 
c1cc(CCNc2ncnc3cc(N4CCN(c5ccc6c(NCCc7ccncc7)ncnc6c5)CC4)ccc23)ccn1 [Compound 33] | 0.03 | < 12500 | 
CCCCNc1ncnc2cc(N3CCN(c4ccc5c(NCCC(C)C)ncnc5c4)CC3)ccc12 [Compound 22] |  | < 500 | 
CCCCNc1ncnc2cc(N(CC)CCN(C)c3ccc4c(NCCC(C)C)ncnc4c3)ccc12 [Compound 92] |  | 2500 | 
CC(C)CCNc1ncnc2cc(N3CCN(c4ccc5c(NCCCN(C)C)ncnc5c4)CC3)ccc12 [Compound 31] |  | < 12500 | 
CC(C)CCNc1ncnc2cc(N3CCN(c4ccc5c(NCCC6CCCC6)ncnc5c4)CC3)ccc12 [Compound 80] |  | 500 | 
CC(C)CCNc1ncnc2cc(N3CCN(c4ccc5c(N(C)CC(C)C)ncnc5c4)CC3)ccc12 [Compound 23] |  |  | EC50 (Hennes-20 cells; Hennes-20 cells, 72 hours compound incubation, alamar Blue, read-out: EC50): < 2500 nM
Cn1cccc1CCNc1ncnc2cc(N3CCN(c4ccc5c(NCCc6cccn6C)ncnc5c4)CC3)ccc12 [Compound 5] | 0.031 | < 2500 | EC50 (NL4-3 Rluc virus): 190 nM
CC(C)CCN(C)c1ncnc2cc(N3CCN(c4ccc5c(N(C)CCC(C)C)ncnc5c4)CC3)ccc12 [Compound 26] | 0.068 |  | 
COc1ccc(CNc2ncnc3cc(N4CCN(c5ccc6c(NCc7ccc(OC)cc7)ncnc6c5)CC4)ccc23)cc1 [Compound 20] | 0.028 |  | 
CC(C)CCNc1ncnc2cc(N3CC(C)N(c4ccc5c(NCCC(C)C)ncnc5c4)CC3C)ccc12 (centres unmarked) [Compound 54] |  | 2500 | 
CC(C)CCNc1ncnc2cc(N3CCN(c4ccc5c(NCC(C)C)ncnc5c4)CC3)ccc12 [Compound 8] |  | < 500 | 

Compound | EC50 (plasmodium) [µM] | EC50 (Hennes-20 cells; [1]) [nM] | other results
CN1CCC(Nc2ncnc3cc(N4CCN(c5ccc6c(NC7CCN(C)CC7)ncnc6c5)CC4)ccc23)CC1 [Compound 38] | 1.4 |  | 
CC(C)CCN(C)c1ncnc2cc(N3CCN(c4ccc5c(NCCC6CCNCC6)ncnc5c4)CC3)ccc12 [Compound 62] |  | > 12500 | 
CC(C)(C)CNc1ncnc2cc(N3CCN(c4ccc5c(NCCc6ccccc6)ncnc5c4)CC3)ccc12 [Compound 58] |  | 12500 | 
CCCCNc1ncnc2cc(N(C)CCCN(C)c3ccc4c(NCCC(C)C)ncnc4c3)ccc12 [Compound 98] |  | < 2500 | 
CN1CCN(CCNc2ncnc3cc(N4CCN(c5ccc6c(NCC(C)(C)C)ncnc6c5)CC4)ccc23)CC1 [Compound 75] |  | > 2500 | 
c1ccc(CCNc2ncnc3cc(N4CCN(c5ccc6c(NCCc7ccccn7)ncnc6c5)CC4)ccc23)nc1 [Compound 40] | 0.091 | < 12500 | 
CC(C)CCNc1cc(N2CCN(c3ccc4c(NCC(C)(C)C)ncnc4c3)CC2C)cc2ncncc12 (centres unmarked) [Compound 66] |  | 2500 | 
CC(C)CCNc1ncnc2cc(N3CCN(c4ccc5c(NCCC6CCNCC6)ncnc5c4)CC3)ccc12 [Compound 36] | 0.76 | < 12500 | 
CCCCNc1ncnc2cc(N3CCN(c4ccc5c(NCCC(C)C)ncnc5c4)C(C)C3C)ccc12 (centres unmarked) [Compound 52] |  | 2500 | 
CC(C)CCNc1ncnc2cc(N3CCN(c4ccc5c(NCCN6CCN(C)CC6)ncnc5c4)CC3)ccc12 [Compound 82] |  | < 12500 | 
CC(C)CC(=O)Nc1ncnc2cc(N3CCN(c4ccc5c(NC(=O)CC(C)C)ncnc5c4)CC3)ccc12 [Compound 43] | > 10 |  | 
CCCCNc1ncnc2cc(N3CCN(c4cc(NCCC(C)C)c5cncnc5c4)C(C)C3)ccc12 (centres unmarked) [Compound 67] |  |  | EC50 (Hennes-20 cells; 72 h): 500 nM
CC(C)CCNc1ncnc2cc(N3CCN(c4ccc5c(NCCc6ccccc6)ncnc5c4)CC3)ccc12 [Compound 11] | 0.032 | < 100 | 
CCCCNc1ncnc2cc(N3CCN(c4ccc5c(NCCC6CCNCC6)ncnc5c4)CC3)ccc12 [Compound 57] |  | > 12500 | 
CC(C)CCNc1ncnc2cc(N3CCNCC3)ccc12 [Compound 35] | 0.77 |  | 
CC(C)CNc1ncnc2cc(N3CCN(c4ccc5c(NCCC6CCNCC6)ncnc5c4)CC3)ccc12 [Compound 63] |  | > 12500 | 
CCCCNc1ncnc2cc(N3CCN(c4ccc5c(NCCC(C)C)ncnc5c4)CC3C)ccc12 (centres unmarked) [Compound 51] |  | 500 | 
CC(C)(C)CNc1ncnc2cc(N3CCN(c4ccc5c(NCCc6ccccn6)ncnc5c4)CC3)ccc12 [Compound 68] |  | 500 | 
CCCCNc1ncnc2cc(N3CCN(c4ccc5c(NCCc6ccncc6)ncnc5c4)CC3)ccc12 [Compound 73] |  | 2500 | 
